Three molecules from article PMC5851678, “Phosphorylation decelerates conformational dynamics in bacterial translation elongation factors” (Science Advances, 2018) can be followed below.

Common to all, as to experiment: ITC
Assay [1] concerns the target T1, EF-Tu.
T1 construct: gene tufA; full-length, His-tagged (pET-His-EF-Tu), expressed in E. coli BL21(DE3), nucleotide-free, unphosphorylated
Details: species or system Escherichia coli. As to conditions: 50 mM Hepes pH 7.4, 40 mM NH4Cl, 2 mM MgCl2, 1 mM TCEP. An excerpt:
ITC on EF-Tu | consistent with the affinities measured with GDPNP

Assay [2] addresses T2, pEF-TuT382.
T2 construct: gene tufA; full-length His-tagged EF-Tu phosphorylated at T382 in vitro by toxin Doc with ATP, repurified by SEC
Details: species or system Escherichia coli. The note with it: 50 mM Hepes pH 7.4, 40 mM NH4Cl, 2 mM MgCl2, 1 mM TCEP; phosphorylated at T382.

Assay [3] concerns the target T2, pEF-TuT382. Type of assay: binding, Escherichia coli. The note with it: 50 mM Hepes pH 7.4, 40 mM NH4Cl, 2 mM MgCl2, 1 mM TCEP, nucleotide-free protein, phosphorylated at T382.
In assay [4] the target is T1, EF-Tu. Format: binding, Escherichia coli. As to conditions: 20 °C, 50 mM Hepes pH 7.4, 40 mM NH4Cl, 2 mM MgCl2, 1 mM TCEP, nucleotide-free protein; read-out: affinity.

Molecules are shown by their SMILES. Read-outs that look alike come from different tables or passages of the source.

For the molecule `Nc1nc2c(ncn2[C@@H]2O[C@H](COP(=O)(O)OP(=O)(O)NP(=O)(O)O)[C@@H](O)[C@H]2O)c(=O)[nH]1` [GDPNP, 5′-guanylyl imidodiphosphate], the values for the Kd on EF-Tu [1] and at pEF-TuT382 [2] were 128 ± 8 nM and 320 ± 1 nM, respectively.

Turning to `Nc1nc2c(ncn2[C@@H]2O[C@H](COP(=O)(O)OP(=O)(O)O)[C@@H](O)[C@H]2O)c(=O)[nH]1` [GDP], the Kd turned out to be 5.7 nM at pEF-TuT382 [3] (read-out: affinity) and 4.5 nM on EF-Tu [4].

In the case of `Nc1nc2c(ncn2[C@@H]2O[C@H](COP(=O)(O)OP(=O)(O)OP(O)(O)=S)[C@@H](O)[C@H]2O)c(=O)[nH]1` [GTPγS, guanosine-5′-(γ-thio)-triphosphate], the results for the Kd at pEF-TuT382 [3] (read-out: Kd) and on EF-Tu [4] were 90 nM and 81 nM, respectively.
